In patent publication US11638706B2, “Methods for treating Huntington's disease” (PTC Therapeutics, Inc., priority 2015, dated 2023):

Tested on: Huntingtin protein (HTT)
Assay: Endogenous Huntingtin Protein Assay (MSD electrochemiluminescence ELISA; MW1 or MAB2166 capture, #5656S detection)
Assay type: cell-based, human
Procedure: The Endogenous Huntingtin Protein assay used in Example 2 was developed using the Best Pair antibodies identified in Table 2, providing highly sensitive, high-throughput detection assays for polyglutamine-expanded (mHTT) and total human HTT in multiple cell systems. The platform used for the assay is the ELISA-based Meso Scale Discovery (MSD) electrochemiluminescence assay platform.
Meso Scale Discovery (MSD) 96-well or 384-well plates were coated overnight at 4° C. with MW1 (expanded polyglutamine) or MAB2166 monoclonal antibody (for capture) at a concentration of 1 μg/mL in PBS (30 μL per well). Plates were then washed three times with 300 μL wash buffer (0.05% Tween-20 in PBS) and blocked (100 μL blocking buffer; 5% BSA in PBS) for 4-5 hours at room temperature with rotational shaking and then washed three times with wash buffer.
Samples (25 μL) were transferred to the antibody-coated MSD plate and incubated overnight at 4° C. After removal of the lysates, the plate was washed three times with wash buffer, and 25 μL of #5656S (Cell signaling; rabbit monoclonal) secondary antibody (diluted to 0.25 μg/mL in 0.05% Tween-20 in blocking buffer) was added to each well and incubated with shaking for 1 Hour at room temperature. Following incubation with the secondary antibody, the wells were rinsed with wash buffer after which 25 μL of goat anti-rabbit SULFO TAG secondary detection antibody (required aspect of the MSD system) (diluted to 0.25 μg/mL in 0.05% Tween-20 in blocking buffer) was added to each well and incubated with shaking for 1 hour at room temperature. After rinsing three times with wash buffer, 150 μL of read buffer T with surfactant (MSD) were added to each empty well, and the plate was imaged on a SI 6000 imager (MSD) according to manufacturers' instructions provided for 96- or 384-well plates.

Compound | IC50
3-[2-methoxy-4-(1H-pyrazol-1-yl)phenyl]-6-[(2,2,6,6-tetramethylpiperidin-4-yl)oxy]pyridazine [Cpd 447] | 3000 to 9000 nM
5-(3,5-dimethyl-1H-pyrazol-4-yl)-2-{6-[(2,2,6,6-tetramethylpiperidin-4-yl)oxy]pyridazin-3-yl}phenol [Cpd 451] | 3000 to 9000 nM
5-(5-methyl-1H-pyrazol-4-yl)-2-{6-[(2,2,6,6-tetramethylpiperidin-4-yl)oxy]pyridazin-3-yl}phenol [Cpd 418] | ≤ 100 nM
CN(c1ccc(-c2ccc3nccn3c2)nn1)C1CC(C)(C)NC(C)(C)C1 [Cpd 16, 6-(imidazo[1,2-a]pyridin-6-yl)-N-methyl-N-(2,2,6,6-tetramethylpiperidin-4-yl)pyridazin-3-amine] | 3000 to 9000 nM
CN(c1ccc(-c2cc3ccccc3cc2O)nn1)C1CC(C)(C)NC(C)(C)C1 [Cpd 26, 3-(6-(methyl(2,2,6,6-tetramethylpiperidin-4-yl)amino)pyridazin-3-yl)naphthalen-2-ol] | 100 to 500 nM
CC1(C)CC(Oc2ccc(-c3cc4ccccc4cc3O)nn2)CC(C)(C)N1 [Cpd 31, 3-(6-((2,2,6,6-tetramethylpiperidin-4-yl)oxy)pyridazin-3-yl)naphthalen-2-ol] | 100 to 500 nM
CN(c1ccc(-c2ccc(C#N)cc2O)nn1)C1CC(C)(C)NC(C)(C)C1 [Cpd 39, 3-hydroxy-4-(6-(methyl(2,2,6,6-tetramethylpiperidin-4-yl)amino)pyridazin-3-yl)benzonitrile] | 3000 to 9000 nM
Cc1cnc(-c2ccc(-c3ccc(N(C)C4CC(C)(C)NC(C)(C)C4)nn3)c(O)c2)o1 [Cpd 44, 5-(5-methyl-oxazol-2-yl)-2-(6-(methyl-(2,2,6,6-tetramethylpiperidin-4-yl)-amino)-pyridazin-3-yl)phenol] | ≤ 100 nM
CN(c1ccc(-c2ccc(-n3ccnc3)cc2O)nn1)C1CC(C)(C)NC(C)(C)C1 [Cpd 46, 5-(1H-imidazol-1-yl)-2-(6-(methyl(2,2,6,6-tetramethylpiperidin-4-yl)amino)pyridazin-3-yl)phenol] | ≤ 100 nM
CN(c1ccc(-c2ccc(-n3cc(N)cn3)cc2O)nn1)C1CC(C)(C)NC(C)(C)C1 [Cpd 47, 5-(4-amino-1H-pyrazole-1-yl)-2-(6-(methyl(2,2,6,6-tetramethylpiperidin-4-yl)amino)pyridazin-3-yl)phenol] | 100 to 500 nM
CN(c1ccc(-c2ccc(-c3cn[nH]c3)cc2O)nn1)C1CC(C)(C)NC(C)(C)C1 [Cpd 48, 2-(6-(methyl(2,2,6,6-tetramethylpiperidin-4-yl)amino)pyridazin-3-yl)-5-(1H-pyrazol-4-yl)phenol] | ≤ 100 nM
CN(c1ccc(-c2ccc(-c3cnn(C)c3)cc2O)nn1)C1CC(C)(C)NC(C)(C)C1 [Cpd 51, 2-(6-(methyl(2,2,6,6-tetramethylpiperidin-4-yl)amino)pyridazin-3-yl)-5-(1-methyl-1H-pyrazol-4-yl)phenol] | ≤ 100 nM
CC1(C)CC(Oc2ccc(-c3ccc(-n4cccn4)cc3O)nn2)CC(C)(C)N1 [Cpd 63, 5-1H-pyrazol-1-yl-2-(6-(2,2,6,6-tetramethylpiperidin-4-yl-oxy)-pyridazin-3-yl)phenol] | ≤ 100 nM
CC1(C)CC(Oc2ccc(-c3ccc(-c4cn[nH]c4)cc3O)nn2)CC(C)(C)N1 [Cpd 64, 5-(1H-pyrazol-4-yl)-2-(6-((2,2,6,6-tetramethylpiperidin-4-yl)oxy)pyridazin-3-yl)phenol] | ≤ 100 nM
CN(c1ccc(-c2ccc(-c3ccnc(O)c3)cc2O)nn1)C1CC(C)(C)NC(C)(C)C1 [Cpd 170, 4-(3-hydroxy-4-(6-(methyl(2,2,6,6-tetramethylpiperidin-4-yl)amino)pyridazin-3-yl)phenyl)pyridin-2-ol] | ≤ 100 nM
CC1(C)CC(Oc2ccc(-c3ccc(-c4ccnc(O)c4)cc3O)nn2)CC(C)(C)N1 [Cpd 176, 4-(3-hydroxy-4-(6-((2,2,6,6-tetramethylpiperidin-4-yl)oxy)pyridazin-3-yl)phenyl)pyridin-2-ol] | ≤ 100 nM
Oc1cc(-c2cn[nH]c2)ccc1-c1ccc(N2C[C@H]3CNC[C@H]3C2)nn1 [Cpd 200, 2-(6-((3aR,6aS)-hexahydropyrrolo[3,4-c]pyrrol-2(1H)-yl)pyridazin-3-yl)-5-(1H-pyrazol-4-yl)phenol] | ≤ 100 nM
CN(c1ccc(-c2cc3cccnc3cc2O)nn1)C1CC(C)(C)NC(C)(C)C1 [Cpd 207, 6-(6-(methyl(2,2,6,6-tetramethylpiperidin-4-yl)amino)pyridazin-3-yl)quinolin-7-ol] | 100 to 500 nM
CN(c1ccc(-c2cc3cnccc3cc2O)nn1)C1CC(C)(C)NC(C)(C)C1 [Cpd 212, 7-(6-(methyl(2,2,6,6-tetramethylpiperidin-4-yl)amino)pyridazin-3-yl)isoquinolin-6-ol] | ≤ 100 nM
CN(c1ccc(-c2cc3ccncc3cc2O)nn1)C1CC(C)(C)NC(C)(C)C1 [Cpd 218, 6-(6-(methyl(2,2,6,6-tetramethylpiperidin-4-yl)amino)pyridazin-3-yl)isoquinolin-7-ol] | ≤ 100 nM

Compound | IC50
CN(c1ccc(-c2cc3cncnc3cc2O)nn1)C1CC(C)(C)NC(C)(C)C1 [Cpd 258, 6-(6-(methyl(2,2,6,6-tetramethylpiperidin-4-yl)amino)pyridazin-3-yl)quinazolin-7-ol] | 100 to 500 nM
COc1cc(-c2cn[nH]c2)ccc1-c1nnc(N(C)C2CC(C)(C)NC(C)(C)C2)s1 [Cpd 307] | 100 to 500 nM
CN(c1nnc(-c2ccc(-c3cnn(C)c3)cc2O)s1)C1CC(C)(C)NC(C)(C)C1 [Cpd 315] | ≤ 100 nM
CN(c1nnc(-c2ccc(-c3ccn(C)c(=O)c3)cc2O)s1)C1CC(C)(C)NC(C)(C)C1 [Cpd 318] | ≤ 100 nM
CN(c1nnc(-c2ccc(-c3cn[nH]c3)c(F)c2F)s1)C1CC(C)(C)NC(C)(C)C1 [Cpd 348] | ≤ 100 nM
CN(c1nnc(-c2cc(F)c(-c3cn[nH]c3)cc2F)s1)C1CC(C)(C)NC(C)(C)C1 [Cpd 350] | ≤ 100 nM
CN(c1nnc(-c2c(F)cc(-c3cn[nH]c3)cc2F)s1)C1CC(C)(C)NC(C)(C)C1 [Cpd 352] | 100 to 500 nM
CN(c1nnc(-c2ccc(-c3cn[nH]c3)cc2O)s1)C1CC(C)(C)NC(C)(C)C1 [Cpd 393] | ≤ 100 nM
CN(c1ccc(-c2ccc(-c3cn[nH]c3)cc2O)nn1)C1C[C@H]2CC[C@@H](C1)N2 (stereo partly drawn) [Cpd 411, 2-{6-[(1R,5S)-8-azabicyclo[3.2.1]oct-3-yl(methyl)amino]pyridazin-3-yl}-5-(1H-pyrazol-4-yl)phenol] | ≤ 100 nM
Oc1cc(-c2cn[nH]c2)ccc1-c1ccc(NC2C[C@H]3CC[C@@H](C2)N3)nn1 (stereo partly drawn) [Cpd 412, 2-[6-((1R,5S)-8-azabicyclo[3.2.1]oct-3-ylamino)pyridazin-3-yl]-5-(1H-pyrazol-4-yl)phenol] | ≤ 100 nM
CC1(C)CC(Nc2ccc(-c3ccc(-c4cn[nH]c4)cc3O)nn2)CC(C)(C)N1 [Cpd 413, 5-(1H-pyrazol-4-yl)-2-{6-[(2,2,6,6-tetramethylpiperidin-4-yl)amino]pyridazin-3-yl}phenol] | ≤ 100 nM
Cn1cc(-c2ccc(-c3ccc(OC4CC(C)(C)NC(C)(C)C4)nn3)c(O)c2)cn1 [Cpd 414, 5-(1-methyl-1H-pyrazol-4-yl)-2-{6-[(2,2,6,6-tetramethylpiperidin-4-yl)oxy]pyridazin-3-yl}phenol] | ≤ 100 nM
Oc1cc(-c2cn[nH]c2)ccc1-c1ccc(OC2C[C@H]3CC[C@@H](C2)N3)nn1 (stereo partly drawn) [Cpd 415, 2-[6-((1R,5S)-8-azabicyclo[3.2.1]oct-3-yloxy)pyridazin-3-yl]-5-(1H-pyrazol-4-yl)phenol] | ≤ 100 nM
Cc1[nH]ncc1-c1ccc(-c2ccc(N(C)C3CC(C)(C)NC(C)(C)C3)nn2)c(O)c1 [Cpd 416, 5-(5-methyl-1H-pyrazol-4-yl)-2-{6-[methyl(2,2,6,6-tetramethylpiperidin-4-yl)amino]pyridazin-3-yl}phenol] | ≤ 100 nM
CC1(C)CC(Oc2ccc(-c3ccc(-n4ccnc4)cc3O)nn2)CC(C)(C)N1 [Cpd 417, 5-(1H-imidazol-1-yl)-2-{6-[(2,2,6,6-tetramethylpiperidin-4-yl)oxy]pyridazin-3-yl}phenol] | ≤ 100 nM
CN(c1ccc(-c2ccc(-n3cc([N+](=O)[O-])cn3)cc2O)nn1)C1CC(C)(C)NC(C)(C)C1 [Cpd 419, 2-{6-[methyl(2,2,6,6-tetramethylpiperidin-4-yl)amino]pyridazin-3-yl}-5-(4-nitro-1H-pyrazol-1-yl)phenol] | ≤ 100 nM
COc1cc(-n2cc([N+](=O)[O-])cn2)ccc1-c1ccc(N(C)C2CC(C)(C)NC(C)(C)C2)nn1 [Cpd 420, 6-[2-methoxy-4-(4-nitro-1H-pyrazol-1-yl)phenyl]-N-methyl-N-(2,2,6,6-tetramethylpiperidin-4-yl)pyridazin-3-amine] | ≤ 100 nM
CC1(C)CC(Oc2ccc(-c3ccc(-n4cc(N)cn4)cc3O)nn2)CC(C)(C)N1 [Cpd 421, 5-(4-amino-1H-pyrazol-1-yl)-2-{6-[(2,2,6,6-tetramethylpiperidin-4-yl)oxy]pyridazin-3-yl}phenol] | ≤ 100 nM
CN1CC=C(c2ccc(-c3ccc(-c4cn[nH]c4)cc3O)nn2)CC1 [Cpd 422, 2-[6-(1-methyl-1,2,3,6-tetrahydropyridin-4-yl)pyridazin-3-yl]-5-(1H-pyrazol-4-yl)phenol] | ≤ 100 nM
